Among the test systems are A549; EKVX; HCT-116; HCT-15; HOP-62; HOP-92; HT-29; Hs-578T; LOX IMVI; NCI-H460; OVCAR-4; OVCAR-8; PC-3; RPMI-8226; SF-539; SK-MEL-28; SK-OV-3; SW-620; T47D.
Holding throughout (assay): growth of human tumour cells (NCI), 48 h

Structures are written as SMILES.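 Grown in 96-well plates, cells were treated for 48 hours with each compound at five concentrations. Insufficient inhibition: endpoint recorded as highest concentration tested. GI50 is the concentration that inhibits growth by half.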 The source made the active and inactive calls. No stated cut-off is given here; in the data, active = GI50 up to about 1.1 µM and inactive = higher. Some results are limits rather than exact numbers.

`CC1=NOC(C)(O)/C1=N/O` (centres undefined): the GI50 is > 100 µM (inactive) in the assay on A549; > 100 µM (inactive) with EKVX; > 100 µM (inactive) with HCT-116; above 100 µM in the assay on HCT-15; > 100 µM (inactive) in the assay with HOP-62; > 100 µM (inactive) in the assay with HOP-92. In addition, the GI50 in the assay on HT-29, in the assay on Hs-578T, in the assay with LOX IMVI, with NCI-H460, with OVCAR-4 and with OVCAR-8 was > 100 µM (inactive) in each case. For the same compound, the GI50 with PC-3, in the assay with RPMI-8226, with SF-539, in the assay with SK-MEL-28, in the assay with SK-OV-3 and with SW-620 was > 100 µM (inactive) in each case. Further, the GI50 with T47D is > 100 µM (inactive).

Turning to `CC(NC(=O)NC(C)(C)C)NC(=O)C(N)CC(=O)O` (centres undefined), the GI50 with A549 was > 100 µM (inactive); with EKVX, > 100 µM (inactive); with HCT-116, > 100 µM (inactive); in the assay on HCT-15, above 100 µM; in the assay with HOP-62, > 100 µM (inactive); in the assay with HOP-92, > 100 µM (inactive). Besides, the GI50 in the assay with HT-29, with Hs-578T, in the assay with LOX IMVI, with NCI-H460, in the assay with OVCAR-4 and in the assay with OVCAR-8 was > 100 µM (inactive) in each case. Further, the GI50 with PC-3 was > 100 µM (inactive); in the assay with RPMI-8226 it was > 100 µM (inactive); in the assay with SF-539, > 100 µM (inactive); with SK-MEL-28, > 100 µM (inactive); with SK-OV-3, 15.8 µM (inactive); in the assay with SW-620 it was > 100 µM (inactive). Also, the GI50 in the assay on T47D is > 100 µM (inactive).

With `O=C(O)C(CCc1ccccn1)c1ccccc1` (centres undefined), the GI50 in the assay on A549 was > 100 µM (inactive); in the assay with EKVX it was > 100 µM (inactive); with HCT-116, > 100 µM (inactive); in the assay with HCT-15, above 100 µM; in the assay on HOP-62, > 100 µM (inactive); in the assay on HOP-92, > 50.4 µM (inactive). For the same compound, the GI50 in the assay with HT-29, in the assay on Hs-578T, with LOX IMVI, with NCI-H460, with OVCAR-4 and with OVCAR-8 was > 100 µM (inactive) each time. Besides, the GI50 with PC-3, in the assay on RPMI-8226, in the assay with SF-539, with SK-MEL-28, in the assay on SK-OV-3 and in the assay with SW-620 was > 100 µM (inactive) throughout. Further, the GI50 in the assay on T47D was > 100 µM (inactive).

`CC(C)c1cc2c(c(O)c1O)[C@@]1(C(=O)O)CCCC(C)(C)[C@@H]1CC2` [CARNOSIC ACID]: the GI50 in the assay with A549 was 18.2 µM (inactive); in the assay with EKVX, 15.9 µM (inactive); in the assay on HCT-116 it was 28.7 µM (inactive); in the assay with HCT-15, 27.3 µM; with HOP-62 it was 27.2 µM (inactive); in the assay with HOP-92, 6.22 µM (inactive). Besides, the GI50 with HT-29 is 16.3 µM (inactive); with Hs-578T, 24.1 µM (inactive); in the assay on LOX IMVI, 19.6 µM (inactive); in the assay with NCI-H460 it was 19.9 µM (inactive); in the assay with OVCAR-4, 39.5 µM (inactive); with OVCAR-8, 15.3 µM (inactive). In addition, the GI50 with PC-3 was 15.3 µM (inactive); in the assay with RPMI-8226, 7.48 µM (inactive); in the assay on SF-539, 18.7 µM (inactive); in the assay on SK-MEL-28, 13.2 µM (inactive); in the assay on SK-OV-3, 37.3 µM (inactive); in the assay on SW-620, 31.8 µM (inactive). Further, in the assay with T47D, the GI50 is 18.4 µM (inactive).

As for `COC1=CC(=O)C2=C(C1=O)[C@H]1CC[C@]3(C)[C@@H](O)CC[C@H]3[C@@H]1CC2`, the GI50 was 18.4 µM (inactive) with A549; 16.8 µM (inactive) in the assay with EKVX; 17 µM (inactive) with HCT-116; 18 µM with HCT-15; 16.2 µM (inactive) with HOP-62; 21.6 µM (inactive) in the assay on HOP-92. Also, the GI50 in the assay with HT-29 was 4.71 µM (inactive); in the assay with Hs-578T, 19.9 µM (inactive); in the assay on LOX IMVI it was 19.8 µM (inactive); in the assay with NCI-H460, 18.3 µM (inactive); in the assay on OVCAR-4, 17.2 µM (inactive); in the assay with OVCAR-8, 17.8 µM (inactive). Further, the GI50 in the assay on PC-3 is 16.4 µM (inactive); with RPMI-8226 it was 19.3 µM (inactive); in the assay with SF-539, 16.9 µM (inactive); with SK-MEL-28 it was 18.9 µM (inactive); in the assay on SK-OV-3 it was 45 µM (inactive); with SW-620, 32.7 µM (inactive). The GI50 in the assay on T47D was 13.8 µM (inactive).

As to `Cc1ccc(C)c(C(=N)c2ccccc2Cc2ccccc2)c1`, the GI50 in the assay with A549 was 24.2 µM (inactive); in the assay on EKVX, 19 µM (inactive); in the assay with HCT-116, 12.6 µM (inactive); with HCT-15 it was 24.7 µM; with HOP-62, 24.3 µM (inactive); with HOP-92 it was 17 µM (inactive). Moreover, the GI50 with HT-29 was 12.9 µM (inactive); in the assay on Hs-578T it was 5.42 µM (inactive); with LOX IMVI, 17.3 µM (inactive); in the assay with NCI-H460 it was 14.7 µM (inactive); with OVCAR-4, 19.4 µM (inactive); in the assay on OVCAR-8, 31.7 µM (inactive). Also, the GI50 in the assay on PC-3 is 26.7 µM (inactive); in the assay with RPMI-8226, 12.3 µM (inactive); with SF-539, 17.9 µM (inactive); with SK-MEL-28, 26.4 µM (inactive); with SK-OV-3, 26.8 µM (inactive); in the assay on SW-620, 31.2 µM (inactive). In the assay on T47D, the GI50 is 21 µM (inactive).

Consider `CC1=NC(=Cc2ccccc2O)C(=O)N1n1c(-c2ccccc2)nc2ccccc2c1=O`, for which the GI50 with A549 is 35.1 µM (inactive); in the assay with EKVX it was 34.9 µM (inactive); in the assay with HCT-116 it was 26.5 µM (inactive); in the assay with HCT-15, 39.4 µM; in the assay with HOP-62, 55.1 µM (inactive); in the assay on HOP-92, 31.9 µM (inactive). Besides, the GI50 was 32.4 µM (inactive) in the assay with HT-29; 51.1 µM (inactive) in the assay on Hs-578T; 33 µM (inactive) with LOX IMVI; 30.3 µM (inactive) in the assay with NCI-H460; 27.5 µM (inactive) in the assay with OVCAR-4; 33.7 µM (inactive) in the assay on OVCAR-8. Moreover, the GI50 in the assay with PC-3 is 30.3 µM (inactive); in the assay with RPMI-8226 it was 48.5 µM (inactive); in the assay on SF-539, 26.7 µM (inactive); in the assay on SK-MEL-28, 36.9 µM (inactive); with SK-OV-3, 33.3 µM (inactive); in the assay on SW-620, 49.1 µM (inactive). Also, the GI50 in the assay with T47D is 21.5 µM (inactive).

As for `COC(=O)CN(CC(=O)NCCCBr)C1CCCCC1N(CC(=O)OC)CC(=O)OC` (centres undefined), the GI50 with A549 was > 100 µM (inactive); in the assay with EKVX it was > 100 µM (inactive); in the assay on HCT-116, > 100 µM (inactive); in the assay on HCT-15, above 100 µM; in the assay on HOP-62 it was > 100 µM (inactive); in the assay with HOP-92, 77.3 µM (inactive). Besides, the GI50 in the assay on HT-29 was > 100 µM (inactive); with Hs-578T, 53.7 µM (inactive); in the assay on LOX IMVI it was > 100 µM (inactive); in the assay with NCI-H460, > 100 µM (inactive); in the assay on OVCAR-4 it was > 100 µM (inactive); in the assay with OVCAR-8, > 100 µM (inactive). Further, the GI50 is > 100 µM (inactive) in the assay on PC-3; > 100 µM (inactive) with RPMI-8226; > 100 µM (inactive) in the assay with SF-539; > 100 µM (inactive) in the assay with SK-MEL-28; 32.3 µM (inactive) with SK-OV-3; > 100 µM (inactive) with SW-620. The GI50 with T47D was > 100 µM (inactive).

On to `COc1cc(C2c3cc4c(cc3OC(NNc3ccccc3)C2C)OCO4)cc(OC)c1O` (centres undefined), for which the GI50 with A549 is 1.41 µM (inactive); with EKVX, 7.8 µM (inactive); with HCT-116, 1.52 µM (inactive); in the assay on HCT-15 it was 0.313 µM; with HOP-62, 5.66 µM (inactive); in the assay on HOP-92 it was 9.2 µM (inactive). For the same compound, the GI50 in the assay on HT-29 is 1.23 µM (inactive); in the assay with Hs-578T it was 2.83 µM (inactive); in the assay with LOX IMVI it was 0.049 µM (active); in the assay with NCI-H460, 0.337 µM (active); with OVCAR-4 it was 13.3 µM (inactive); in the assay with OVCAR-8, 1.52 µM (inactive). In addition, the GI50 in the assay with PC-3 was 0.815 µM (active); in the assay on RPMI-8226, 0.995 µM (active); in the assay on SF-539, 0.596 µM (active); with SK-MEL-28, 4.22 µM (inactive); with SK-OV-3, 3.79 µM (inactive); in the assay on SW-620, 2.59 µM (inactive). The GI50 in the assay with T47D was 0.757 µM (active).

As to `COc1cc2cc(C(=O)Nc3cc4n(n3)-c3ccccc3C4)[nH]c2c(OC)c1OC`, the GI50 is 1.81 µM (inactive) in the assay on A549; 2.17 µM (inactive) in the assay on EKVX; 2.73 µM (inactive) in the assay on HCT-116; 2.52 µM in the assay with HCT-15; 2 µM (inactive) with HOP-62; 2.18 µM (inactive) with HOP-92. Besides, the GI50 is 11.9 µM (inactive) in the assay with HT-29; 2.98 µM (inactive) with Hs-578T; 4.68 µM (inactive) in the assay with LOX IMVI; 1.64 µM (inactive) in the assay with NCI-H460; 1.24 µM (inactive) with OVCAR-4; 1.26 µM (inactive) with OVCAR-8. In addition, the GI50 is 2.71 µM (inactive) in the assay with PC-3; 1.06 µM (active) with RPMI-8226; 7.08 µM (inactive) with SF-539; 3.72 µM (inactive) with SK-MEL-28; 6.25 µM (inactive) in the assay on SK-OV-3; 7.08 µM (inactive) in the assay on SW-620. For the same compound, the GI50 in the assay with T47D was 0.883 µM (active).

On to `CN(C)CCCN1c2ccccc2CCc2cccc([N+](=O)[O-])c21`, for which the GI50 in the assay with A549 is 37.3 µM (inactive); with EKVX it was 49.3 µM (inactive); in the assay on HCT-116, 15.6 µM (inactive); in the assay with HCT-15, 15.6 µM; in the assay with HOP-62 it was 16.5 µM (inactive); in the assay on HOP-92 it was 14.4 µM (inactive). The GI50 in the assay with HT-29 was 14.6 µM (inactive); in the assay on Hs-578T it was 23.3 µM (inactive); in the assay with LOX IMVI it was 16.6 µM (inactive); with NCI-H460, 18.2 µM (inactive); with OVCAR-4, 18 µM (inactive); in the assay with OVCAR-8 it was 15.9 µM (inactive). For the same compound, the GI50 was 19.8 µM (inactive) in the assay with PC-3; 11.1 µM (inactive) in the assay with RPMI-8226; 17.7 µM (inactive) in the assay with SF-539; 13.4 µM (inactive) in the assay with SK-MEL-28; 28.6 µM (inactive) with SK-OV-3; 17.7 µM (inactive) with SW-620. Moreover, the GI50 in the assay on T47D is 13.7 µM (inactive).

The values are drawn from ChEMBL document CHEMBL1201862, “PubChem BioAssay data set” (2004).
